From patent US8614194B1, “Anionic cell penetrating peptide and its use for intracellular delivery” (Kaohsiung Medical University, priority 2012, dated 2013)
No end group written: not given here.

Assays:
Type in all cases: cell-based, human
hADSCs = experiment: Fluorescence microscopy of translocation into cells; conditions: FITC-labeled, 10 μM, 30 minutes, 37° C., FIG. 5
Method: (§1) Cells are treated with 10 μM test compound for 30 minutes at 37° C., washed using PBS, and then treated with 0.5% trypsin. Cells are labeled with 5 μg/ml Hoechst 33342 (Invitrogen) and PKH26-GL (Sigma) respectively for nuclei and membrane labeling. Standard protocols are followed according to the kit instructions. Cells are lastly suspended again in PBS for fluorescence images. Fluorescence images are captured by Olympus, CellR and Olympus FV1000 confocal microscope using glass-bottom culture slides with excitation by 488 nm (FITC-labeled peptide) laser line.

HeLa cells [1] = experiment: as above; conditions: FITC-labeled, 10 μM, 30 minutes, 37° C., FIG. 4
Method: as §1

HeLa cells [2] = experiment: Endocytosis inhibition analysis (uptake with inhibitors); conditions: 10 μM, 37° C., 30 minutes, inhibitors NaN3 and 2DG, EIPA, NaClO3, FIG. 8(A)
Method: For inhibition of endocytosis, HeLa cells are treated with 200 mM sodium azide (NaN3; Sigma) and 2-deoxy-D-glucose (2DG; Sigma) for 1 hour to deplete intracellular ATP pools and influence cell metabolism. hADSCs are treated with 10 mM NaN3 and 2DG for 1 h with the same purpose. For inhibition of macropinosome formation, HeLa cells and hADSCs are treated with 3 mM 5-(N-ethyl-N-isopropyl) amiloride (EIPA, Sigma) for 10 minutes. For inhibition of proteoglycan sulfation, HeLa cells and hADSCs are treated with 600 mM sodium chlorate (NaClO3, Sigma) for 2 days. After this treatment of inhibitors, cells are treated with 10 μM test compound (200 μl), and then incubated at 37° C. for 30 minutes. 10^4 cells in 0.1 ml medium are seeded into each well of a 24-well plate, and then trypsin (200 μl) is added into each well. Cells are transferred to a microtube and incubated for 5 minutes. Cells are processed for flow cytometry as described above after being added with 200 μl of medium and washed with PBS.

| Substance | translocation into cells (hADSCs) | translocation into cells (HeLa cells [1]) | route of internalization, uptake combined with inhibitors (HeLa cells [2]) |
| --- | --- | --- | --- |
| 6-aminocaproic acid-R7 [ACP-R7] | crosses into ADSCs | crosses into HeLa cells | internalized by macropinocytosis, endocytosis, and direct translocation resulted from proteoglycan sulfation |
| AAAADD [A4D2, four alanine residues linked to the N terminal of two aspartate residues] | crosses into ADSCs | – | – |
| AADDDD [A2D4, two alanine residues linked to the N terminal of four aspartate residues] | crosses into ADSCs | – | – |
| DDDDDD [D6, peptide of six aspartate residues] | crosses into ADSCs | – | – |
| KD6K-simvastatin: peptide KDDDDDDK carrying simvastatin and PEG500; Lys capped by acetic anhydride or FITC (also: carries simvastatin and PEG500, Lys capped by acetyl or FITC) | crosses into ADSCs | – | – |
| KDDDDDD [KD6, one lysine residue linked to the N terminal of six aspartate residues] | crosses into ADSCs | – | – |
